Measured values from US7625883B1, “Glycerophosphoinositol derivatives as modulators of cytosolic A2 phospholipase” (I.R.B. Istituto di Ricerche Biotechnologiche S.R.L., priority 2000, dated 2009).
Marks after values point to notes of the source that are not given here.

What was measured:
cPLA2 = experiment: release of arachidonic acid induced by the activation of cPLA2 in various cellular systems (overall statement); type: cell-based; details: all the cellular systems tested
Description: Evaluation of the effects of the L-α-glycero-phospho-D-mio-inositol autacoid coded example 4a on the release of arachidonic acid induced by cPLA2 in various cellular systems.
The cultures are stimulated to release arachidonic acid using various stimuli:
(§1) cPLA2-dependent mechanism, for example ATP, mastoparan, bombesin;
(§2) The cells are initially incubated with various concentrations of the compound under examination for 60 minutes or with a predefined concentration of 100 μM for various time intervals (15-180 minutes), washed two times with HBSS (Hank's Balanced Salt Solution, in the presence of Ca2+ and Mg2+ ions) added with 10 mM Hepes and 0.2% BSA—in absence of free fatty acids, pH 7.4 and stimulated with 100 μM ATP in the described buffer for 10 minutes at 37° C. The supernatant was collected in scintillation cuvettes for determination. The results are expressed as a percentage of the total release of [3H]-arachidonic acid.

Swiss 3T3 fibroblasts [1] = experiment: release of [3H]-arachidonic acid from Swiss 3T3 fibroblasts stimulated with ATP; type: cell-based
Description: as §1, §2
(§3) Preloaded cells were pre-incubated with various concentrations of the Example 4a for 60 minutes and then stimulated with 100 μM ATP for 10 minutes. The results are expressed as the mean±SE of two points in 3 separate experiments.

Balb/c mice [2] = experiment: plasma extravasation in the ear pinna of the mouse induced by peptide P6-11 of substance P; type: in vivo; details: P 6-11
Balb/c mice [3] = experiment: plasma extravasation in the ear pinna of the mouse induced by substance P; details: compound 5 mg/kg endovenous
Swiss 3T3 fibroblasts [4] = experiment: mastoparan-dependent release of [3H]-arachidonic acid in Swiss 3T3 fibroblasts; type: cell-based
Description: as §1, §2
Preloaded radioactively labeled cells were pre-incubated with various concentrations of the Example 4a for 60 minutes and then stimulated with 100 μM mastoparan for 10 minutes. The results are expressed as the mean±SE of two points in 3 separate experiments.

Swiss 3T3 fibroblasts [5] = experiment: bombesin-dependent release of [3H]-arachidonic acid in Swiss 3T3 fibroblasts; type: cell-based; details: then bombesin 10 minutes
Description: as §1, §2
Preloaded cells were pre-incubated with various concentrations of the Example 4a for 60 minutes and then stimulated with bombesin for 10 minutes. The results are expressed as the mean±SE of two points in 3 separate experiments.

FRTL5 cells [6] = experiment: release of [3H]-arachidonic acid induced by ionomicin in FRTL5 cells (cPLA2-independent); type: cell-based, rat; details: for Release of [^3H]-arachidonic acid: then 10 μM ionomicin 30 minutes
Description: FRTL5, cell line of epithelial cells from rat thyroid grown in culture. Briefly, the cells were cultured in Coon's F12 medium modified according to Ham and supplemented with 5% bovine serum, 20 mM glutamine and a mixture of six hormones. (6H-thyrotropin, insulin, transferring, cortisol, somatostatin, glicil-L-istidil-L-lysine acetate) at 37° C. in a humidified atmosphere in 5% CO2, 95% air medium changed every 3-4 days.
cPLA2-independent mechanism, for example Ca2+ ionophore, ionomicin.
as §2
Preloaded cells were pre-incubated with various concentrations of the Example 4a for 60 minutes and then stimulated with 10 μM ionomicin for 30 minutes. The results are expressed as the mean±SE of two points in 3 separate experiments.

FRTL5 cells [7] = experiment: release of [3H]-arachidonic acid from FRTL5 cells stimulated with ATP; type: cell-based, rat; details: ATP 100 μM 10 minutes
Description: FRTL5, cell line of epithelial cells from rat thyroid grown in culture. Briefly, the cells were cultured in Coon's F12 medium modified according to Ham and supplemented with 5% bovine serum, 20 mM glutamine and a mixture of six hormones. (6H-thyrotropin, insulin, transferring, cortisol, somatostatin, glicil-L-istidil-L-lysine acetate) at 37° C. in a humidified atmosphere in 5% CO2, 95% air medium changed every 3-4 days. […]
as §2
Preloaded cells are incubated with 100 μM of compound of the Example 4a for different time intervals and then stimulated with ATP (100 μM) for 10 minutes. The results are expressed as the mean±SE of two points in 3 separate experiments. The stimulation of control cells was generally 4-5 times the basal value in the corresponding intervals.
as §3

solubility in water = type: physicochemical
[8] = solubility in organic solvents; type: physicochemical
[9] = compound 5 mg/kg endovenous 30 minutes before
[10] = compound 10 mg/Kg endovenous 30 minutes before

Compound: L-α-glycero-phospho-D-mio-inositol zinc salt [Example 3]
- effect on release of arachidonic acid induced by the activation of the cPLA2 (in words) (cPLA2): more potent effect

Compound: Nc1ncnc2c1ncn2[C@@H]1O[C@H](COP(=O)(O)OP(=O)(O)OP(=O)(O)O)[C@@H](O)[C@H]1O [ATP, reference compound]
- Release of [^3H]-arachidonic acid % basal (Swiss 3T3 fibroblasts [1]; stimulus alone: 100 μM ATP 10 minutes, no test compound): 149 ± 11 % basal

Compound: NCCCC[C@H](N)C(=O)O.O=P(O)(OCC(O)CO)OC1C(O)C(O)C(O)C(O)C1O [Example 6, L-α-glycero-phospho-D-mio-inositol lysine salt]
- Absorbance (Evan's Blue, 620 nm) (Balb/c mice [2]; [9]): 0.131 ± 0.022
- Absorbance (Evan's Blue, 620 nm) (Balb/c mice [2]; [10]): 0.072 ± 0.010•
- Absorbance (Evan's Blue, 620 nm) (Balb/c mice [3]): 0.239 ± 0.015

Compound: C[N+](C)(C)CCO.O=P([O-])(OCC(O)CO)OC1C(O)C(O)C(O)C(O)C1O [Example 5, L-α-glycero-phospho-D-mio-inositol choline salt]
- Absorbance (Evan's Blue, 620 nm) (Balb/c mice [3]): 0.222 ± 0.010

Compound: L-α-glycero-phospho-D-mio-inositol calcium salt [Example 2]
- Absorbance (Evan's Blue, 620 nm) (Balb/c mice [2]; [9]): 0.092 ± 0.021
- Absorbance (Evan's Blue, 620 nm) (Balb/c mice [2]; [10]): 0.079 ± 0.022•

Compound: Mastoparan [reference compound]
- Release of [^3H]-arachidonic acid % basal (Swiss 3T3 fibroblasts [4]; stimulus alone: 100 μM mastoparan 10 minutes, no test compound): 150 ± 12 % basal

Compound: O=P([O-])(OCC(O)CO)OC1C(O)C(O)C(O)C(O)C1O.[K+] [Example 4a, L-α-glycero-phospho-D-mio-inositol potassium salt]
- Release of [^3H]-arachidonic acid % basal (Swiss 3T3 fibroblasts [4]; 50 μM compound 60 minutes, then 100 μM mastoparan 10 minutes): 90 ± 3 % basal
- Release of [^3H]-arachidonic acid % basal (Swiss 3T3 fibroblasts [4]; 100 μM compound 60 minutes, then 100 μM mastoparan 10 minutes): 80 ± 4 % basal
- Release of [^3H]-arachidonic acid % basal (Swiss 3T3 fibroblasts [5]; 50 μM compound 60 minutes): 120 ± 3 % basal
- Release of [^3H]-arachidonic acid % basal (Swiss 3T3 fibroblasts [5]; 100 μM compound 60 minutes): 90 ± 4 % basal
- effect on release of arachidonic acid induced by the activation of the cPLA2 (in words) (cPLA2): reduce in a time and concentration dependent manner the release of arachidonic acid
- Release of [^3H]-arachidonic acid (FRTL5 cells [6]; 50 μM compound 60 minutes): 720 ± 30
- Release of [^3H]-arachidonic acid (FRTL5 cells [6]; 100 μM compound 60 minutes): 450 ± 14
- effect on release of arachidonic acid induced by stimuli not related to cPLA2 (in words) (FRTL5 cells [6]; calcium ionophore): does not induce reduction of the release of arachidonic acid
- Release of [^3H]-arachidonic acid % basal (Swiss 3T3 fibroblasts [1]; 50 μM compound 60 minutes, then 100 μM ATP 10 minutes): 80 ± 9 % basal
- Release of [^3H]-arachidonic acid % basal (Swiss 3T3 fibroblasts [1]; 100 μM compound 60 minutes, then 100 μM ATP 10 minutes): 70 ± 4 % basal
- Absorbance x10^−2 (Balb/c mice [2]; compound 0.5 mg/kg endovenous (Table 8)): 54 ± 4* x10^−2
- Absorbance x10^−2 (Balb/c mice [2]; compound 1.5 mg/Kg endovenous (Table 8)): 57 ± 7* x10^−2
- Absorbance x10^−2 (Balb/c mice [2]; compound 5 mg/Kg endovenous (Table 8)): 34 ± 8* x10^−2
- Absorbance (Evan's Blue, 620 nm) (Balb/c mice [2]; [9]): 0.081 ± 0.027
- Release of [^3H]-arachidonic acid % inhibition (FRTL5 cells [7]; 0.005 μM compound, 60 minutes preincubation): 10 ± 2 % inhibition
- Release of [^3H]-arachidonic acid % inhibition (FRTL5 cells [7]; 0.01 μM compound, 60 minutes preincubation): 35 ± 5 % inhibition
- Release of [^3H]-arachidonic acid % inhibition (FRTL5 cells [7]; 0.1 μM compound, 60 minutes preincubation): 41 ± 2 % inhibition
- Release of [^3H]-arachidonic acid % inhibition (FRTL5 cells [7]; 1.0 μM compound, 60 minutes preincubation): 52 ± 3 % inhibition
- Release of [^3H]-arachidonic acid % inhibition (FRTL5 cells [7]; 10 μM compound, 60 minutes preincubation): 60 ± 8 % inhibition
- Release of [^3H]-arachidonic acid % inhibition (FRTL5 cells [7]; 50 μM compound, 60 minutes preincubation): 70 ± 4 % inhibition
- Release of [^3H]-arachidonic acid % inhibition (FRTL5 cells [7]; 100 μM compound, 15 minutes of preincubation): 30 ± 4 % inhibition
- Release of [^3H]-arachidonic acid % inhibition (FRTL5 cells [7]; 100 μM compound, 30 minutes of preincubation): 42 ± 5 % inhibition
- Release of [^3H]-arachidonic acid % inhibition (FRTL5 cells [7]; 100 μM compound, 60 minutes of preincubation): 70 ± 4 % inhibition
- Release of [^3H]-arachidonic acid % inhibition (FRTL5 cells [7]; 100 μM compound, 60 minutes preincubation): 92 ± 2 % inhibition
- Release of [^3H]-arachidonic acid % inhibition (FRTL5 cells [7]; 100 μM compound, 90 minutes of preincubation): 72 ± 5 % inhibition
- Release of [^3H]-arachidonic acid % inhibition (FRTL5 cells [7]; 100 μM compound, 120 minutes of preincubation): 71 ± 6 % inhibition
- Release of [^3H]-arachidonic acid % inhibition (FRTL5 cells [7]; 100 μM compound, 180 minutes of preincubation): 92 ± 9 % inhibition

Compound: O=P([O-])(OCC(O)CO)OC1C(O)C(O)C(O)C(O)C1O.[Na+] [Example 4, L-α-glycerol-phospho-D-mio-inositol sodium salt]
- effect on release of arachidonic acid induced by the activation of the cPLA2 (in words) (cPLA2): more potent effect

Compound: CCCC[N+](CCCC)(CCCC)CCCC.O=P([O-])(OCC(O)CO)OC1C(O)C(O)C(O)C(O)C1O [Example 8, L-α-glycero-phospho-D-mio-inositol tetrabutylammonium salt]
- solubility in water (solubility in water): >10000 µg/mL
- solubility in organic solvents ([8]; in DMF): ≧10 mg/ml in DMF
- solubility in organic solvents ([8]; in words): slightly soluble in organic solvents,
